Laboratory results reported in patent US7090971B2, “Transglutaminase has intrinsic kinase activity” (priority 2004, dated 2006).
“Also recorded” adds a separate entry of the source.

Experiments:
TG2 [1] = molecular target: T1, TG2 (Homo sapiens, UniProt P21980); assay: IGFBP-3 kinase activity of anti-TG2 immunoprecipitates from solubilized membranes; format: biochemical; parameters: endogenous in cells; host or cells: T47D or MCF-7 cell membranes (anti-TG2 immunoprecipitate on protein A-agarose); settings: cystamine 20 μM, ROCK2 inhibitor 5 μM (FIG. 3C)
T1 sequence (P21980 1-687): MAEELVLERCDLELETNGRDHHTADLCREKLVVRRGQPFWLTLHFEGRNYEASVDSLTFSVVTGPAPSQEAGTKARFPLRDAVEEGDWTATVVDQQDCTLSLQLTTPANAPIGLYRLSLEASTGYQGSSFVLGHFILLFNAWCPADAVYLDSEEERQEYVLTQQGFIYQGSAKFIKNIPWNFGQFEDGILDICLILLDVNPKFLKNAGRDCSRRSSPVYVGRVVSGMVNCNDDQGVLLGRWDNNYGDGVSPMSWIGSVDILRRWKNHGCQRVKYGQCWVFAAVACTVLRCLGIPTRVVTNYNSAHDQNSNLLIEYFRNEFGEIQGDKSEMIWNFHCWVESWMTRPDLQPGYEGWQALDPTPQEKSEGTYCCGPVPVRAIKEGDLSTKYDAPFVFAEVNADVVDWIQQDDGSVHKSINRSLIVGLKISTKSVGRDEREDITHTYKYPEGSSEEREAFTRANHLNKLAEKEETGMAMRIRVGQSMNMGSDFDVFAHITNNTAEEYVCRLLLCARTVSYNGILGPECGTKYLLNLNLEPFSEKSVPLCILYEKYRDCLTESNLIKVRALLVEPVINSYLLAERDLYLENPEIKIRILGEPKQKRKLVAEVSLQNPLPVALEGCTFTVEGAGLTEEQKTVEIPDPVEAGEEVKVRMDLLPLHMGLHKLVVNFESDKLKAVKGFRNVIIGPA
Method: To 200 μl of solubilized membranes from T47D of MCF-7 cells, 10 μl of anti-TG2 goat polyclonal antiserum (Upstate Biotechnology, Lake Placid, N.Y.) and incubated for 1 h at 4° C. 20 μl of protein A-agarose (Pierce) was added and further incubated on a rotating device overnight at 4° C. At the end of incubation the pellet was washed four times in ice cold PBS. The supernatant was discarded and the pellet was resuspended in 50 μl of kinase buffer. 10 μl of the resuspended sample was used for phosphorylation of 500 ng of IGFBP-3. The samples were analyzed by SDS-PAGE, autoradiography and immunoblotting with TG2 antiserum.
We next examined the effect of TG2 and ROCK2 antisera on IGFBP-3 kinase activity present in cell membrane preparations. Antiserum against TG2 but not ROCK2 antiserum was able to immunodeplete IGFBP-3 kinase activity from membrane preparations (FIG. 3A). When the immunoprecipitates were analyzed for kinase activity, the precipitates obtained with TG2 antiserum but not those obtained with ROCK2 antiserum had kinase activity. Furthermore, the IGFBP-3 kinase activity present in the immunoprecipitates was inhibited by cystamine but not by the ROCK2 inhibitor.

T47D cell membranes = assay: Phosphorylation of IGFBP-3 by T47D cell membranes; format: biochemical, human; settings: cystamine 20 μM (10 and 20 μM in FIG. 2C), MDC 200 μM, ROCK2 inhibitor 2 and 5 μM (FIG. 2B, 2C)
Method: (§1) Polystyrene tube were coated with streptavidin and blocked with bovine serum albumin, washed in saline and stored at −20° C. until used. Biotinylated IGFBP-3 (500 ng) was added in streptavidin-coated tubes for 2 h on ice. At the end of incubation, excess, unbound IGFBP-3 was removed. Tubes were placed on ice and phosphorylation reaction mixture containing 20 mM Tris buffered saline pH 7.5, 10 mM Mg/ATP, 60 μCi/ml ^32P-ATP was added. Reaction was initiated by the addition of membrane fraction and allowed to proceed for 30 min at 30° C. Reaction was stopped by addition of SDS-PAGE sample buffer, boiled for 7–10 min and analyzed on 11% gel. Subsequently gels were dried and processed for autoradiography. In some cases 2 μU of pure TG2 (Sigma-Aldrich, MO) or histidine-tagged full length human TG2 expressed using baculovirus expression system in insect cells and purified by Ni(II)-nitroacetate agarose chromatography was used to phosphorylate IGFBP-3 in presence or absence of TG2 specific inhibitors. In experiments where cell monolayers were used to phosphorylate IGFBP-3, cells were grown in 24-well culture plate to near confluence and washed with PBS to remove residual media and serum. Phosphorylation was then performed in 100 pI reaction mixture as above, containing 1 μg IGFBP-3 for 10 min at 37° C. At the end of incubation, reaction mixture was aspirated, reaction was stopped by addition of sample buffer and analyzed on 11% gel. In some experiments, cell monolayer were treated with TG2 inhibitor for 30 min prior to the phosphorylation reaction.
We assessed the effect of the TG2 and ROCK2 inhibitors on phosphorylation of IGFBP-3 by cell monolayers. We have previously shown that intact washed cells were able to phosphorylate IGFBP-3 immobilized on polystyrene tubes (Mishra and Murphy, 2003). T47D cell monolayers were incubated for 30 minutes in the presence of various concentrations of cystamine, an inhibitor of TG2. The washed cell monolayers were incubated with IGFBP-3 in the presence of ^32P-ATP for 10 minutes at 37° C. After termination of the incubation, the IGFBP-3 was analyzed by SDS-PAGE and autoradiography (FIG. 2A). […] Similar experiments were undertaken utilizing membrane preparations from both T47D and MCF-7 cells. As reported previously both T47D and MCF-7 cells were able to phosphorylate IGFBP-3. This process was inhibited by cystamine and MDC in both cells lines (FIG. 2B). DMSO the vehicle in which MDC was dissolved had no effect. Since TG2 has been found in association with ROCK2, a Rho-kinase (Singh et al., 2001, EMBO J., 20:2413–2423), and ROCK2 was present in the affinity purified cell membrane fractions, we investigated the effect of the ROCK2 inhibitor, R (+)trans-N-(4-pyridyl)-4-(1aminoethyl)-cyclohexanecarboxamide dihydrochloride. […]

T47D cell monolayers = assay: Phosphorylation of IGFBP-3 by T47D cell monolayers; format: cell-based, human
Method: as §1
We assessed the effect of the TG2 and ROCK2 inhibitors on phosphorylation of IGFBP-3 by cell monolayers. We have previously shown that intact washed cells were able to phosphorylate IGFBP-3 immobilized on polystyrene tubes (Mishra and Murphy, 2003). T47D cell monolayers were incubated for 30 minutes in the presence of various concentrations of cystamine, an inhibitor of TG2. […] After termination of the incubation, the IGFBP-3 was analyzed by SDS-PAGE and autoradiography (FIG. 2A). […]

TG2 [2] = molecular target: T1, TG2; assay: IGFBP-3 kinase activity of recombinant human TG2; format: biochemical; parameters: histidine-tagged full length human TG2 expressed using baculovirus expression system in insect cells; histidine tag; made in house; host or cells: insect cells (baculovirus expression system); settings: for effect on phosphorylation of IGFBP-3 by human recombinant TG2: cystamine 20 μM, MDC 200 μM (FIG. 4A)
Method: as §1
Purified guinea pig liver TG2 and human recombinant TG2 both were able to phosphorylate IGFBP-3 (FIG. 4A). This process was inhibited cystamine and MDC. The related binding protein IGFBP-5 was also phosphorylated by TG2 whereas IGFBP-1 was not phosphorylated by TG2 (FIG. 4B). […] Fibronectin, another reported substrate for TG2 (Akimov and Belkin, 2001, J. Cell Sci., 114:2989–3000), was not phosphorylated by this enzyme under the conditions we used to phosphorylate IGFBP-3 (FIG. 4B). […]

guinea pig liver TG2 = molecular target: T2, guinea pig liver TG2 (UniProt P08587); assay: IGFBP-3 kinase activity of purified guinea pig liver TG2; format: biochemical; settings: cystamine 20 μM, MDC 200 μM (FIG. 4A)
T2 construct: Both TG2 purified from guinea pig liver and recombinant human TG2 expressed in insect cells were able to phosphorylate IGFBP-3; purchased Sigma-Aldrich, MO; host or cells: guinea pig liver (tissue-purified)
T2 sequence (P08587 1-690): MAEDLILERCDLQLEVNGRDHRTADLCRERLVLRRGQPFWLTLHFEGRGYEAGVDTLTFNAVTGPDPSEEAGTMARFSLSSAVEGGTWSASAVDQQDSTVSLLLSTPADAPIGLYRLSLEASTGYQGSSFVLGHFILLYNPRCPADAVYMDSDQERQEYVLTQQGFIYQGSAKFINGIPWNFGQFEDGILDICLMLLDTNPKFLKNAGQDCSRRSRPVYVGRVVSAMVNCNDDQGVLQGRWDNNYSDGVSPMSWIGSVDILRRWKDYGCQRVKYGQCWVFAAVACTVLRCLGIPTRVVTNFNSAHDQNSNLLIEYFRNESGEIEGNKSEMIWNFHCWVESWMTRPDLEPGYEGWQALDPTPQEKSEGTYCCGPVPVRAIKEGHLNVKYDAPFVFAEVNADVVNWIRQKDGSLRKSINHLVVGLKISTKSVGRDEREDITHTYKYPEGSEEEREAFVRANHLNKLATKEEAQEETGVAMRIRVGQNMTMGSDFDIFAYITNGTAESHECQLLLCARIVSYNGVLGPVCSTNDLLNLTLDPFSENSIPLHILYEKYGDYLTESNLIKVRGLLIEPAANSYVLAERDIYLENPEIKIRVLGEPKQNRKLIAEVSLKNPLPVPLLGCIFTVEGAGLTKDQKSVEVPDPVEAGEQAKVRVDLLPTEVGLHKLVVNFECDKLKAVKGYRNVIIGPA
Method: as §1, with “Phosphorylation was then performed in 100 pI reaction mixture as above, containing 1 μg IGFBP-3 for 10 min at 37° C.” left out, “In some experiments, cell monolayer were treated with TG2 inhibitor for 30 min prior to the phosphorylation reaction.” left out

MCF-7 cell membranes = assay: Phosphorylation of IGFBP-3 by MCF-7 cell membranes; format: biochemical, human; settings: cystamine 20 μM, MDC 200 μM (FIG. 2B)
Method: as §1, with “In experiments where cell monolayers were used to phosphorylate IGFBP-3, cells were grown in 24-well culture plate to near confluence and washed with PBS to remove residual media and serum. Phosphorylation was then performed in 100 pI reaction mixture as above, containing 1 μg IGFBP-3 for 10 min at 37° C.” left out, “In some experiments, cell monolayer were treated with TG2 inhibitor for 30 min prior to the phosphorylation reaction.” left out
We assessed the effect of the TG2 and ROCK2 inhibitors on phosphorylation of IGFBP-3 by cell monolayers. […] After termination of the incubation, the IGFBP-3 was analyzed by SDS-PAGE and autoradiography (FIG. 2A). […]

TG2 [3] = molecular target: T1, TG2; assay: Cross-linking activity of recombinant TG2 (polymerization of IGFBP-3); format: biochemical; parameters: histidine-tagged full length human TG2 expressed using baculovirus expression system in insect cells; histidine tag; made in house; host or cells: insect cells (baculovirus expression system); settings: recombinant TG2, increasing calcium concentration (FIG. 4C)
[4] = T47D cell monolayers pre-incubated 30 minutes with inhibitor, 32P-ATP, 10 minutes at 37° C., autoradiography (FIG. 2A)

| SMILES | effect on IGFBP-3 kinase activity present in anti-TG2 immunoprecipitates (TG2 [1]) | effect on phosphorylation of IGFBP-3 by T47D cell membranes (T47D cell membranes) | effect on IGFBP-3 kinase activity of breast cancer cell monolayers (T47D cell monolayers; breast cancer cell monolayers (FIG. 2A)) | effect on phosphorylation of IGFBP-3 by human recombinant TG2 (TG2 [2]) | effect on phosphorylation of IGFBP-3 by purified guinea pig liver TG2 (guinea pig liver TG2) | effect on phosphorylation of IGFBP-3 by MCF-7 cell membranes (MCF-7 cell membranes) | effect on phosphorylation of IGFBP-3 by T47D cell membranes (T47D cell membranes; listed as monodansyl cadaverine) | effect of increasing calcium concentration on kinase activity of TG2 (TG2 [2]; recombinant TG2, increasing calcium concentration (FIG. 4C)) | effect of increasing calcium concentration on polymerization of IGFBP-3 (cross-linking activity of TG2) (TG2 [3]) | concentration at which complete inhibition of IGFBP-3 phosphorylation was apparent (T47D cell monolayers; [4]) | concentration at which inhibition of IGFBP-3 phosphorylation was seen (as little as) (T47D cell monolayers; [4]) |
| --- | --- | --- | --- | --- | --- | --- | --- | --- | --- | --- | --- |
| C[C@@H](N)[C@H]1CC[C@H](C(=O)Nc2ccncc2)CC1.Cl.Cl (relative stereo) [ROCK2 inhibitor, R (+)trans-N-(4-pyridyl)-4-(1aminoethyl)-cyclohexanecarboxamide dihydrochloride] | not | no effect | no effect | – | – | – | – | – | – | – | – |
| CN(C)c1cccc2c(S(=O)(=O)NCCCCCN)cccc12 [MDC, monodansyl cadaverine] | – | inhibited | – | inhibited | inhibited | inhibited | abolished | – | – | – | – |
| [Ca+2] [calcium] | – | – | – | – | – | – | – | decrease in the kinase activity; also recorded: inhibited in a concentration dependent fashion | increase in polymerization | – | – |
| NCCSSCCN [cystamine] | inhibited | inhibited; also recorded: abolished | – | inhibited | inhibited | inhibited | – | – | – | 50 µM | 20 µM |
